From PubChem BioAssay (NCI)
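Values below derive from 48-hour exposures of cells grown in 96-well plates, with endpoints linearly interpolated between the two concentrations bracketing the appropriate inhibition level. At the TGI there is no net growth.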

Legend:
Experiment in all cases: NCI-60 cell line screen, 48 h
RPMI-8226 leukemia = tested on: RPMI-8226 leukemia
CAKI-1 renal = tested on: CAKI-1 renal
NCI-H522 lung = tested on: NCI-H522 lung
RXF 393 renal = tested on: RXF 393 renal
SF-295 CNS = tested on: SF-295 CNS
HT29 colon = tested on: HT29 colon
U251 CNS = tested on: U251 CNS
SR leukemia = tested on: SR leukemia
OVCAR-8 ovarian = tested on: OVCAR-8 ovarian
BT-549 breast = tested on: BT-549 breast
NCI-H226 lung = tested on: NCI-H226 lung
A498 renal = tested on: A498 renal
IGROV1 ovarian = tested on: IGROV1 ovarian
786-0 renal = tested on: 786-0 renal
UO-31 renal = tested on: UO-31 renal
HS 578T breast = tested on: HS 578T breast
NCI-H23 lung = tested on: NCI-H23 lung
HL-60(TB) leukemia = tested on: HL-60(TB) leukemia
MCF7 breast = tested on: MCF7 breast

Compound | TGI (RPMI-8226 leukemia) | TGI (CAKI-1 renal) | TGI (NCI-H522 lung) | TGI (RXF 393 renal) | TGI (SF-295 CNS) | TGI (HT29 colon) | TGI (U251 CNS) | TGI (SR leukemia) | TGI (OVCAR-8 ovarian) | TGI (BT-549 breast) | TGI (NCI-H226 lung) | TGI (A498 renal) | TGI (IGROV1 ovarian) | TGI (786-0 renal) | TGI (UO-31 renal) | TGI (HS 578T breast) | TGI (NCI-H23 lung) | TGI (HL-60(TB) leukemia) | TGI (MCF7 breast)
COC(=O)c1ccc(C)cc1CC1Cc2c(C)cccc2C1=O (centres undefined) | 30.3 µM | 30.8 µM | 22.8 µM | 34.3 µM | > 52.8 µM | 11.1 µM | 20.8 µM | > 100 µM | > 68.8 µM | 21.1 µM | 37.4 µM | 24 µM | 80.1 µM | 34.8 µM | 66.4 µM | 34 µM | > 46.6 µM | 24.2 µM | 7.93 µM
Nc1c2c(nc3ccccc13)CCCc1ccccc1-2 | 30.4 µM | 40.9 µM | 37.2 µM | 24.7 µM | 24 µM | 22.5 µM | 24.7 µM | > 100 µM | 30.8 µM | > 100 µM | 45.4 µM | 22 µM | 26.3 µM | 24.9 µM | 26.3 µM | 52 µM | > 100 µM | 21.4 µM | 29.2 µM
Oc1ccccc1-c1nn2c(CCCCCCCCc3nnc4sc(-c5ccccc5O)nn34)nnc2s1 | > 100 µM | > 100 µM | 82.5 µM | > 64.1 µM | > 100 µM | > 67.7 µM | > 100 µM | > 48.7 µM | > 100 µM | > 100 µM | > 100 µM | > 89 µM | > 100 µM | > 100 µM | 48.5 µM | > 100 µM | > 100 µM | 77.9 µM | > 100 µM
CCOP(C)(=O)/C(Cc1ccc(OC)c(OC)c1)=N\O (centres undefined) | > 100 µM | > 100 µM | > 100 µM | > 100 µM | > 100 µM | > 100 µM | > 100 µM | > 100 µM | > 100 µM | > 100 µM | > 100 µM | > 100 µM | > 100 µM | > 100 µM | > 100 µM | > 100 µM | > 100 µM | > 100 µM | > 100 µM
Cc1nnc([C@@]2(C)CC[C@H]3[C@@H](CCC4=CC(=O)CC[C@@]43C)[C@@H]2CC#N)o1 | > 100 µM | > 100 µM | > 100 µM | > 100 µM | > 100 µM | > 100 µM | > 100 µM | > 100 µM | > 100 µM | > 100 µM | > 100 µM | > 100 µM | > 100 µM | > 100 µM | > 100 µM | > 100 µM | > 100 µM | > 100 µM | > 100 µM
COCn1c(C)c(C)c2c(=O)oc(C)nc21 | > 100 µM | 45 µM | > 100 µM | > 100 µM | > 100 µM | > 100 µM | > 100 µM | > 100 µM | > 100 µM | > 100 µM | > 100 µM | > 100 µM | > 100 µM | > 100 µM | > 100 µM | > 100 µM | > 100 µM | > 100 µM | > 100 µM
